Laboratory results: ChEMBL document CHEMBL3244086, “A new class of antimalarial drugs: derivatives of benzothiopyrans” (J Med Chem, 1978)
Activity calls are given as the source filed them. The rule behind the calls is not given here.

Assays:
Plasmodium berghei [1] = test: Antimalarial activity against Plasmodium berghei infected in mouse assessed as host survival time at 640 mg/kg, sc treated after 3 days of infection (reference value: 6.2 +/- 0.5 days); format: functional
Gallus gallus [2] = test: Toxicity in chick at 160 mg/kg, sc; format: organism-based; design: dose 160 mg/kg, route subcutaneous; details: chicken, in vivo
Plasmodium gallinaceum [3] = test: Antimalarial activity against Plasmodium gallinaceum B infected in chick assessed as host survival time at 160 mg/kg, sc treated immediately after infection; format: functional
Plasmodium gallinaceum [4] = test: Antimalarial activity against Plasmodium gallinaceum B infected in chick assessed as host survival time at 320 mg/kg, sc treated immediately after infection; format: functional
Plasmodium berghei [5] = test: Antimalarial activity against Plasmodium berghei infected in mouse assessed as host survival time at 320 mg/kg, sc treated after 3 days of infection (reference value: 6.2 +/- 0.5 days); format: functional
Plasmodium berghei [6] = test: Antimalarial activity against Plasmodium berghei infected in mouse assessed as host cured at 320 to 640 mg/kg, sc treated after 3 days of infection; format: functional, organism-based
Plasmodium berghei [7] = test: Antimalarial activity against Plasmodium berghei infected in mouse assessed as host survival time at 160 mg/kg, sc treated after 3 days of infection (reference value: 6.2 +/- 0.5 days); format: functional; details: route subcutaneous
Gallus gallus [8] = test: Toxicity in chick at 320 mg/kg, sc; format: organism-based; design: dose 320 mg/kg, route subcutaneous; details: chicken, in vivo
Mus musculus = test: Toxicity in mouse at 640 mg/kg, sc; format: organism-based; design: dose 640 mg/kg, route subcutaneous; details: in vivo
Plasmodium gallinaceum [9] = test: Antimalarial activity against Plasmodium gallinaceum B infected in chick assessed as host survival time at 120 mg/kg, sc treated immediately after infection; format: functional, organism-based; design: dose 120 mg/kg
Plasmodium gallinaceum [10] = test: Antimalarial activity against Plasmodium gallinaceum B infected in chick assessed as host survival time at 80 mg/kg, sc treated immediately after infection; format: functional, organism-based; design: dose 80 mg/kg
Gallus gallus [11] = test: Toxicity in chick at 120 mg/kg, sc; format: organism-based; design: dose 120 mg/kg, route subcutaneous; details: chicken, in vivo

For `O=C(NCCC/N=c1\cc(-c2ccccc2)sc2ccc(Cl)cc12)OCc1ccccc1`, the MST (Plasmodium berghei [1]) was “inactive”.
For `CCN(CC)CCCC(C)/N=c1\cc(C23CC4CC(CC(C4)C2)C3)sc2ccc(Cl)cc12.Cl` (centres undefined), the Activity (Gallus gallus [2]) was “Toxic”, the MST (Plasmodium berghei [1]) was “inactive” and the MST (Plasmodium gallinaceum [3]) was “inactive”.
`Cl.Clc1ccc(-c2c/c(=N\CCCN3CCCCC3)c3cc(Cl)ccc3s2)cc1` was tested, and the MST (Plasmodium berghei [1]) was “inactive” and the MST (Plasmodium gallinaceum [4]; route subcutaneous) was 5.2 days.
In the case of `Clc1ccc(-c2c/c(=N\CCCCC3CCCCC3)c3cc(Cl)ccc3s2)cc1`, the MST (Plasmodium berghei [1]) is reported as “inactive” and the MST (Plasmodium gallinaceum [4]) is reported as “inactive”.
With `Clc1ccc(-c2c/c(=N\Cc3ccccn3)c3cc(Cl)ccc3s2)cc1` the MST (Plasmodium berghei [5]) was “inactive” and the MST (Plasmodium gallinaceum [4]) was “inactive”.
For `CCN(CC)CCCC(C)/N=c1\cc(-c2ccc(Cl)cc2)sc2ccc(Br)cc12.Cl` (centres undefined), the MST (Plasmodium berghei [5]) was “inactive” and the MST (Plasmodium gallinaceum [3]; route subcutaneous) was 5 days.
In the case of `CCN(CC)CCCC(C)/N=c1\cc(-c2ccccc2)sc2ccc(Br)cc12.Cl` (centres undefined), the MST (Plasmodium gallinaceum [3]) is reported as “inactive”, the Activity (Plasmodium berghei [6]) is reported as “Active” and the MST (Plasmodium berghei [7]) is reported as 9.5 days.
`Clc1ccc2sc(-c3ccccc3)c/c(=N\C34CC5CC(CC(C5)C3)C4)c2c1` was tested, and the MST (Plasmodium berghei [1]) was “inactive” and the MST (Plasmodium gallinaceum [4]) was “inactive”.
In the case of `CCN(CC)CCCC(C)/N=c1\cc(-c2ccc(Cl)c(Cl)c2)sc2ccc(Br)cc12` (centres undefined), the MST (Plasmodium berghei [5]) is reported as “inactive” and the MST (Plasmodium gallinaceum [3]) is reported as “inactive”.
For `Clc1ccc(-c2c/c(=N\CCCN3CCOCC3)c3cc(Br)ccc3s2)cc1Cl`, the MST (Plasmodium berghei [1]; route subcutaneous) was 10.5 days and the MST (Plasmodium gallinaceum [4]) was “inactive”.
In the case of `CCN(CC)CCCC(C)/N=c1\cc(-c2ccc(Cl)cc2)sc2ccc(Cl)cc12.Cl` (centres undefined), the MST (Plasmodium berghei [1]) is reported as “inactive” and the MST (Plasmodium gallinaceum [4]; route subcutaneous) is reported as 4.7 days.
In the case of `CN1CCN(CCC/N=c2\cc(-c3ccc(Cl)cc3)sc3ccc(Cl)cc23)CC1`, the MST (Plasmodium berghei [5]; route subcutaneous) is reported as 11.2 days, the Activity (Plasmodium berghei [6]) is reported as “Active” and the MST (Plasmodium gallinaceum [4]; route subcutaneous) is reported as 3.4 days. The MST (Plasmodium berghei [7]) was 6.2 days.
`Cl.OCCN1CCN(CCCC/N=c2\cc(-c3ccc(Cl)cc3)sc3ccc(Cl)cc23)CC1` was tested, and the Activity (Gallus gallus [8]) was “Toxic”, the MST (Plasmodium berghei [5]; route subcutaneous) was 7.4 days and the MST (Plasmodium berghei [1]; route subcutaneous) was 7.9 days. The Activity (Mus musculus) was “Toxic”.
With `CCN(CC)CCCC(C)/N=c1\cc(-c2ccc(F)cc2)sc2ccc(Br)cc12.Cl` (centres undefined) the Activity (Gallus gallus [8]) was “Toxic”, the MST (Plasmodium berghei [5]; route subcutaneous) was 6.9 days and the MST (Plasmodium berghei [1]; route subcutaneous) was 10.1 days. For the same compound, the MST (Plasmodium gallinaceum [3]) was “inactive”.
Compound `CN(C)CCC/N=c1\cc(-c2ccccc2)sc2ccc(Cl)cc12.Cl.O` has an MST (Plasmodium berghei [1]; route subcutaneous) of 13.6 days.
`Clc1ccc2sc(-c3ccccc3)c/c(=N\c3cccnc3)c2c1` was tested, and the MST (Plasmodium berghei [5]) was “inactive” and the MST (Plasmodium gallinaceum [4]) was “inactive”.
`CN(C)CCC/N=c1\cc(-c2ccccc2)sc2ccc(Br)cc12.Cl` gave an MST (Plasmodium berghei [5]; route subcutaneous) of 12.6 days.
With `N=C(N)N/N=c1\cc(-c2ccccc2)sc2ccc(Cl)cc12` the MST (Plasmodium berghei [1]; route subcutaneous) was 6.2 days.
With `Clc1ccc2sc(-c3ccccc3)c/c(=N\CCCCC3CCCCC3)c2c1` the MST (Plasmodium berghei [1]) was “inactive” and the MST (Plasmodium gallinaceum [4]) was “inactive”.
With `CCN(CC)CCCC(C)/N=c1\cc(-c2ccc(Cl)c(Cl)c2)sc2ccc(F)cc12` (centres undefined) the MST (Plasmodium gallinaceum [9]) was “inactive” and the MST (Plasmodium berghei [1]) was “inactive”.
With `OCCN1CCN(CC/N=c2\cc(-c3ccc(Cl)cc3)sc3ccc(Cl)cc23)CC1` the MST (Plasmodium berghei [1]) was “inactive” and the MST (Plasmodium gallinaceum [4]) was “inactive”.
For `Cl.Clc1ccc2sc(-c3ccccc3)c/c(=N\CCCN3CCOCC3)c2c1`, the MST (Plasmodium berghei [1]; route subcutaneous) was 6.8 days.
In the case of `CN(C)CCC/N=c1\cc(-c2ccc(Cl)cc2)sc2ccccc12.Cl`, the Activity (Plasmodium berghei [6]) is reported as “Active” and the Activity (Mus musculus) is reported as “Toxic”.
In the case of `CCN(CC)CCCC(C)/N=c1\cc(-c2ccc(Cl)c(Cl)c2)sc2ccc(OC)cc12` (centres undefined), the MST (Plasmodium gallinaceum [9]) is reported as “inactive”.
With `Clc1ccc2sc(-c3ccccc3)c/c(=N\CCN3CCCC3)c2c1` the MST (Plasmodium berghei [1]) was “inactive”.
With `CCN(CC)CCCC(C)/N=c1\cc(-c2ccc(Cl)cc2)sc2ccccc12.Cl` (centres undefined) the Activity (Gallus gallus [2]) was “Toxic”, the MST (Plasmodium berghei [5]) was “inactive” and the MST (Plasmodium gallinaceum [10]) was “inactive”. For the same compound, the Activity (Mus musculus) was “Toxic”.
Work on `CN1CCCC1CC/N=c1\cc(-c2ccccc2)sc2ccc(Cl)cc12` (centres undefined) yielded an MST (Plasmodium berghei [5]; route subcutaneous) of 7 days.
In the case of `CN(C)CC/N=c1\cc(-c2ccccc2)sc2ccc(Cl)cc12`, the MST (Plasmodium berghei [1]) is reported as “inactive”.
With `CN(C)CCC/N=c1\cc(-c2ccc(Cl)cc2)sc2ccc(Cl)cc12` the MST (Plasmodium berghei [5]; route subcutaneous) was 9.8 days, the MST (Plasmodium gallinaceum [3]; route subcutaneous) was 3.4 days and the Activity (Plasmodium berghei [6]) was “Active”. For the same compound, the MST (Plasmodium gallinaceum [4]; route subcutaneous) was 4.4 days and the MST (Plasmodium berghei [7]) was 7 days.
`CN1CCN(CCC/N=c2\cc(-c3ccc(Cl)cc3)sc3ccc(Br)cc23)CC1` was tested, and the MST (Plasmodium berghei [5]) was “inactive” and the MST (Plasmodium gallinaceum [3]) was “inactive”.
`OCCN1CCN(CCCC/N=c2\cc(C34CC5CC(CC(C5)C3)C4)sc3ccc(Br)cc23)CC1` was tested, and the MST (Plasmodium gallinaceum [9]) was “inactive”, the MST (Plasmodium berghei [5]) was “inactive” and the Activity (Gallus gallus [11]) was “Toxic”.
With `CCN(CC)CCCC(C)/N=c1\cc(-c2ccc(F)cc2)sc2ccc(F)cc12.Cl` (centres undefined) the Activity (Gallus gallus [11]) was “Toxic” and the MST (Plasmodium berghei [1]) was “inactive”.
For `CN1CCN(CCC/N=c2\cc(-c3ccc(Cl)cc3)sc3ccccc23)CC1`, the MST (Plasmodium berghei [5]; route subcutaneous) was 6.9 days.
With `CCN(CC)CCCC(C)/N=c1\cc(-c2ccccc2)sc2ccc(Cl)cc12.Cl` (centres undefined) the Activity (Gallus gallus [8]) was “Toxic”, the MST (Plasmodium berghei [5]; route subcutaneous) was 10.6 days and the Activity (Plasmodium berghei [6]) was “Active”. For the same compound, the MST (Plasmodium berghei [7]) was 8 days.
For `CN1CCCC1CC/N=c1\cc(-c2ccc(Cl)c(Cl)c2)sc2ccc(F)cc12` (centres undefined), the MST (Plasmodium berghei [1]) was “inactive” and the MST (Plasmodium gallinaceum [4]) was “inactive”.
For `CCN(CC)CCC/N=c1\cc(-c2ccccc2)sc2ccc(Cl)cc12.NS(=O)(=O)O`, the MST (Plasmodium berghei [5]; route subcutaneous) was 9.1 days, the MST (Plasmodium berghei [1]; route subcutaneous) was 10.3 days and the MST (Plasmodium gallinaceum [4]) was “inactive”.
With `CN1CCN(CCC/N=c2\cc(-c3ccccc3)sc3ccc(Cl)cc23)CC1` the MST (Plasmodium berghei [5]; route subcutaneous) was 7.3 days and the MST (Plasmodium gallinaceum [4]) was “inactive”.
In the case of `Clc1ccc2sc(-c3ccccc3)c/c(=N\C3CN4CCC3CC4)c2c1` (centres undefined), the MST (Plasmodium berghei [1]) is reported as “inactive” and the MST (Plasmodium gallinaceum [4]) is reported as “inactive”.
In the case of `NCCC/N=c1\cc(-c2ccccc2)sc2ccc(Cl)cc12`, the MST (Plasmodium berghei [1]) is reported as “inactive”.
